Legend:
[1] = system: HCMV engineered virus RC256; assay: microbe, parasite or virus in culture; type: cell-based, human cytomegalovirus; settings: Human betaherpesvirus 5, Fibroblast, read-out: Antiviral Activity RC256, first value (EC50)
[2] = biological target: T1, Human leukocyte elastase (HLE) (Homo sapiens, UniProt P08246); assay: Human leukocyte elastase assay; type: biochemical
T1 construct: gift of R. Senior, Washington University
T1 sequence (P08246 30-267): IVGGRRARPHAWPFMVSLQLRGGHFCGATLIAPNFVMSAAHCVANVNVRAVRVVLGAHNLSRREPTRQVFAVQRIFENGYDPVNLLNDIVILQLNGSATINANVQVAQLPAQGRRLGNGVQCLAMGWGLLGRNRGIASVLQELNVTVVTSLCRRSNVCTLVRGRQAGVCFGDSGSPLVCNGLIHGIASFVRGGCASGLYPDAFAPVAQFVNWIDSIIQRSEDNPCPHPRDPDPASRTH
Protocol: Human leukocyte elastase (HLE) (gift of R. Senior, Washington University) was dissolved in saline at 1 mg/ml and further diluted 1/20 in assay buffer (0.2 M Tris, pH 8.0) before use. 10 μl of test compound in DMSO (or DMSO alone), 100 μl of assay buffer and 50 μl of enzyme were added to 96 well plates, mixed and pre-incubated for 30 minutes at ambient temperature. Reaction was initiated by addition of 40 μl of 2.5 mM methoxysuccinyl-Ala-Ala-Pro-Val-p-nitroanilide (Sigma; 25 mM in DMSO diluted 1/10 in assay buffer before use). The increase in absorbance at 405 nm was monitored for 10 minutes with a Biotek EL340 plate reader.

[3] = @ 1 (concentration unit not given)
[4] = @ 10 (concentration unit not given)
[5] = @ 100 (concentration unit not given)

SMILES | EC50 [1] | HLE, % @ concentration [2, 3] | HLE, % @ concentration [2, 4] | HLE, % @ concentration [2, 5]
Cc1c(CNC(=O)OCc2ccccc2)ccc2nc(N[C@@H](Cc3ccccc3)C(=O)N(C)Cc3ccccc3)oc(=O)c12 [Example 9r, Phenylmethyl[[5-methyl-2-[[2-[methyl(phenylmethyl)amino]-2-oxo-1S-(phenylmethyl)ethyl]amino]-4-oxo-4H-3,1-benzoxazin-6-yl]methyl]carbamate] | 14 µM | 47% @ 1 |  | 
COc1ccc(C[C@H](Nc2nc3ccc(NS(=O)(=O)c4ccccc4)c(C)c3c(=O)o2)C(=O)N(C)Cc2ccccc2)cc1 [Example 13c, 4-Methoxy-N-methyl-αS-[[5-methyl-4-oxo-6-[(phenylsulfonyl)amino]-4H-3,1-benzoxazin-2-yl]amino]-N-(phenylmethyl)benzenepropanamide] | 10 µM |  | 39% @ 10 | 
Cc1c(CNC(=O)OC(C)(C)C)ccc2nc(N[C@@H](Cc3ccccc3)C(=O)N(C)CCc3ccccc3)oc(=O)c12 [Example 7v, 1,1-Dimethylethyl[[5-methyl-2-[[2-[methyl(2-phenylethyl)amino]-2-oxo-1S-(phenylmethyl)ethyl]amino]-4-oxo-4H-3,1-benzoxazin-6-yl]methyl]carbamate] | 14 µM |  | 53% @ 10 | 
Cc1c(NC(=O)OC(C)(C)C)ccc2nc(N[C@@H](C)c3ccccc3)oc(=O)c12 [Example 6m, 6-[[(1,1-Dimethylethoxy)carbonyl]amino]-5-methyl-2-[[(1S)-phenylethyl]amino]-4H-3,1-benzoxazin-4-one] | 50 µM |  |  | 82% @ 100
Cc1c(NC(=O)OC(C)(C)C)ccc2nc(N[C@@H](C)C(=O)OC(C)(C)C)oc(=O)c12 [Example 6, N-[6-[[(1,1-Dimethylethoxy]carbonyl]amino]-5-methyl-4-oxo-4H-3,1-benzoxazin-2-yl]-L-alanine, 1,1-dimethylethyl Ester] | > 100 µM |  |  | 29% @ 100
COc1ccc(C[C@H](Nc2nc3ccc(CNC(=O)Cc4ccc(N(C)C)cc4)c(C)c3c(=O)o2)C(=O)N(C)Cc2ccccc2)cc1 [Example 9o, αS-[[6-[[[[4-(Dimethylamino)phenyl]acetyl]amino]methyl]-5-methyl-4-oxo-4H-3,1-benzoxazin-2-yl]amino]-4-methoxy-N-methyl-N-(phenylmethyl)benzenepropanamide] | 14 µM | 73% @ 1 |  | 
COc1ccc(C[C@H](Nc2nc3ccc(CNC(=O)NCc4ccccc4)c(C)c3c(=O)o2)C(=O)N(C)Cc2ccccc2)cc1 [Example 12j, 4-Methoxy-N-methyl-αS-[[5-methyl-4-oxo-6-[[[[(phenylmethyl)amino]carbonyl]amino]methyl]-4H-3,1-benzoxazin-2-yl]amino]-N-(phenylmethyl)benzenepropanamide] | 17 µM | 63% @ 1 |  | 
Cc1c(CNC(=O)CN2CCOCC2)cc(Br)c2nc(N[C@@H](Cc3ccccc3)C(=O)N(C)Cc3ccccc3)oc(=O)c12 [Example 15e, N-[[8-Bromo-5-methyl-2-[[2-[methyl(phenylmethyl)amino]-2-oxo-1S-(phenylmethyl)ethyl]amino]-4-oxo-4H-3,1-benzoxazin-6-yl]methyl]morpholine-4-acetamide] | 16 µM |  |  | 78% @ 100
CCN(C(=O)[C@H](Cc1ccc(OC)cc1)Nc1nc2ccc(N(C)C)c(C)c2c(=O)o1)c1ccccc1 [Example 16b, αS-[[6-(Dimethylamino)-5-methyl-4-oxo-4H-3,1-benzoxazin-2-yl]amino]-N-ethyl-4-methoxy-N-phenylbenzenepropanamide] | 20 µM | 49% @ 1 |  | 
COc1ccc(C[C@H](Nc2nc3ccc(CNC(=O)OCC(C)C)c(C)c3c(=O)o2)C(=O)N(C)Cc2ccccc2)cc1 [Example 9h, 2-Methylpropyl[[2-[[1S-[(4-methoxyphenyl)methyl]-2-[methyl(phenylmethyl)amino]-2-oxoethyl]amino]-5-methyl-4-oxo-4H-3,1-benzoxazin-6-yl]methyl]carbamate] | 14 µM |  | 45% @ 10 | 

From patent publication US6683077B2, “2-Amino-benzoxazinones for the treatment of viral infections” (G.D. Searle & Co., priority 1996, dated 2004)
